Laboratory results as given in ChEMBL document CHEMBL4266016, “Synthesis, Racemic X-ray Crystallographic, and Permeability Studies of Bioactive Orbitides from Jatropha Species” (J Nat Prod, 2018).
pIC50: −log10 of the molar value. Square brackets hold non-standard residues; d marks the D form. Peptide text beside a SMILES is read from it. NMeF = CN[C@@H](Cc1ccccc1)C(=O)O; NMeI = CC[C@H](C)[C@H](NC)C(=O)O; NMeL = CN[C@@H](CC(C)C)C(=O)O; NMeS = CN[C@@H](CO)C(=O)O; Sar = CNCC(=O)O

Experiments:
[1] = Apparent permeability across human Caco2 cells at 50 uM after 90 mins by LC-MS analysis; type: ADME, cell-based; settings: caco-2, 1.5 h
[2] = Apparent permeability of the compound at 50 uM after 5 hrs by PAMPA; type: ADME
[3] = test system: Caco-2; experiment: Cytotoxicity against human Caco2 cells at 0.5 to 64 uM after 2 hrs by resazurin dye based fluorescence assay; type: cell-based; settings: caco-2, 2 h
[4] = Inhibition of porcine pepsin using EDANS-DABCYL as substrate pretreated for 5 mins followed by substrate addition measured for 5 mins by spectrophotometric method; design: species or system Sus scrofa

CC[C@H](C)[C@@H]1NC(=O)[C@H]([C@@H](C)O)NC(=O)CN(C)C(=O)CNC(=O)[C@H](Cc2ccccc2)NC(=O)CNC(=O)[C@H](Cc2ccccc2)N(C)C(=O)[C@H]([C@@H](C)CC)NC1=O (cyclo(FG[Sar]TII[NMeF]G))
Papp [1]: Impermeable
Papp [2]: Impermeable

CC[C@H](C)[C@@H]1NC(=O)[C@H]([C@@H](C)O)NC(=O)CN(C)C(=O)CN(C)C(=O)[C@H](Cc2ccccc2)NC(=O)CN(C)C(=O)[C@H](Cc2ccccc2)N(C)C(=O)[C@H]([C@@H](C)CC)NC1=O (cyclo(F[Sar][Sar]TII[NMeF][Sar]))
Papp [1]: Impermeable
Papp [2]: Impermeable

CC[C@H](C)[C@@H]1NC(=O)[C@H]([C@@H](C)O)NC(=O)CN(C)C(=O)CNC(=O)[C@H](Cc2ccccc2)NC(=O)CNC(=O)[C@H](Cc2ccccc2)N(C)C(=O)[C@H]([C@@H](C)CC)N(C)C1=O (cyclo(FG[Sar]TI[NMeI][NMeF]G))
Papp [1]: Impermeable
Papp [2]: Impermeable

CC[C@H](C)[C@@H]1NC(=O)[C@H]([C@@H](C)CC)N(C)C(=O)[C@H](CO)NC(=O)CN(C)C(=O)[C@H](CC(C)C)N(C)C(=O)[C@H]([C@@H](C)CC)NC(=O)CN(C)C(=O)[C@H](CC(C)C)NC1=O (cyclo(IL[Sar]I[NMeL][Sar]S[NMeI]))
Papp [1]: Impermeable
Papp [2]: Permeable

CC(C)C[C@@H]1NC(=O)CNC(=O)[C@@H]2CCCN2C(=O)CNC(=O)[C@H](Cc2c[nH]c3ccccc23)NC(=O)[C@H](CC(C)C)NC(=O)[C@H](CC(N)=O)NC(=O)[C@H](CC(C)C)NC1=O (cyclo(GLLNLWGP))
Papp [1]: Impermeable
Papp [2]: Impermeable
Activity [3]: Non-Toxic
pIC50 [4]: 6.05

CC[C@H](C)[C@@H]1NC(=O)CNC(=O)[C@H](CC(C)C)NC(=O)[C@H]([C@@H](C)CC)NC(=O)[C@H]([C@@H](C)CC)NC(=O)[C@H](CO)N(C)C(=O)CNC(=O)[C@H](CC(C)C)NC1=O (cyclo(GILG[NMeS]IIL))
Papp [1]: Impermeable
Papp [2]: Impermeable

CC[C@H](C)[C@@H]1NC(=O)CNC(=O)[C@H](CC(C)C)NC(=O)[C@H]([C@@H](C)CC)NC(=O)[C@H]([C@@H](C)CC)NC(=O)[C@H](CO)NC(=O)CN(C)C(=O)[C@H](CC(C)C)NC1=O (cyclo(GIL[Sar]SIIL))
Papp [1]: Impermeable
Papp [2]: Impermeable

CC[C@H](C)[C@@H]1NC(=O)CNC(=O)[C@H](CC(C)C)NC(=O)[C@H]([C@@H](C)CC)NC(=O)[C@H]([C@@H](C)CC)NC(=O)[C@H](CO)N(C)C(=O)CN(C)C(=O)[C@H](CC(C)C)NC1=O (cyclo(GIL[Sar][NMeS]IIL))
Papp [1]: Impermeable
Papp [2]: Impermeable

CC[C@H](C)[C@@H]1NC(=O)[C@H]([C@@H](C)O)NC(=O)CNC(=O)CNC(=O)[C@H](Cc2ccccc2)NC(=O)CNC(=O)[C@H](Cc2ccccc2)NC(=O)[C@H]([C@@H](C)CC)NC1=O (cyclo(FGFGGTII))
Papp [1]: Impermeable
Papp [2]: Impermeable
Activity [3]: Non-Toxic

CC[C@H](C)[C@@H]1NC(=O)CNC(=O)[C@H](CC(C)C)NC(=O)[C@H]([C@@H](C)CC)NC(=O)[C@H]([C@@H](C)CC)NC(=O)[C@H](CO)NC(=O)CNC(=O)[C@H](CC(C)C)NC1=O (cyclo(GILGSIIL))
Papp [1]: Impermeable
Papp [2]: Impermeable
Activity [3]: Non-Toxic
